PMC8533089, “Characteristics of Neurokinin-3 Receptor and Its Binding Sites by Mutational Analysis” (Biology, 2021)

How the values were obtained:
11-KT plasma levels = test: 14-day in vivo experiment: plasma 11-KT (ELISA); design: species or system adult male tilapia (Oreochromis niloticus); details: 500 µg/kg BW IP every 48 h, 14 days; n = 6
Method: (§1) Adult male tilapia (BW 87.29 ± 26.1 g; gonado-somatic index (GSI 0.21% ± 0.36%) were IP injected with SB-222200 (500 µg/kg BW in 25% DMSO) and saline with 25% DMSO as a control every 48 h during a 14-day period. Blood was sampled every 48 h. Milt volume was collected from 6 fish from each group 7 and 14 days after the first injection, generally according to [55].
11-KT levels were determined by ELISA, according to [52], using acetylcholine-esterase as a label. The anti- 11-KT was donated by Dr. D.E. Kime (Sheffield, UK). All samples were analyzed in duplicate, and for each ELISA plate, a separate standard curve was run. The lower limits of detection were 0.93 for 11-KT. The intra- and inter-assay coefficients of variance were less than 7%. Steroid levels in the plasma, determined by ELISA, were validated by verifying that serial dilutions were parallel to the standard curve.

[1] = tested on: Tac3R of the striped bass; design: method as in PMID 28330973; details: cited from earlier work
Text: (§2) The effect of NKB/NKF peptides on gonadotropin secretion in fish is already well established. The first indication that NKB is widely expressed in fish species and has a stimulatory reproductive effect was shown in zebrafish, goldfish, and tilapia. […] Osetanant re ...

[2] = tested on: plasma GH and gonadotropins; test: 14-day in vivo experiment: plasma GH and gonadotropins (ELISA); design: species or system adult male tilapia (Oreochromis niloticus); details: 500 µg/kg BW IP every 48 h, 14 days, versus control
Method: The levels of FSH, LH and GH in the plasma were measured by specific competitive enzyme-linked immunosorbent assay (ELISA), developed for tilapia, based on recombinant gonadotropins or GH that were created by using the yeast Pichia pastoris. For the ELISAs, we used primary antibody antisera against GH [51], FSHβ [52], or against rtLHβ [53], and rtFSHβα [52], rtLHβ [53] or tiGH for the standard curves. Sensitivity for the plasma measurements were 15.84 pg/mL for LH, 0.24 pg/mL for FSH and 30.0 pg/mL for GH. The inter-assay coefficient of variation (CV) was 14.8, 12.5, and 13.0%, while intra-assay CV was 7.2, 8.0, and 8.0% for LH, FSH and GH, respectively.
as §1

Tac3R = tested on: Tac3R; design: method as in PMID 10992004; details: cited from earlier work
Text: as §2

Q: Which results are given for CC[C@H](NC(=O)c1c(C)c(-c2ccccc2)nc2ccccc12)c1ccccc1 [SB-222200]?
A: 11-KT plasma levels (11-KT plasma levels): significantly delayed the rise of 11-KT levels in plasma; antagonistic effect on the Tac3R of the striped bass [1]: no antagonistic effect; Plasma GH and gonadotropins [2]: did not change significantly; inhibition of NKB binding to the membranes of CHO cells (Tac3R; CHO cells stably expressing the Tac3R receptor): inhibited NKB binding to the membranes of CHO cells; antagonism of NKB-induced Ca^2+ mobilization (Tac3R; HEK 293 cells): antagonized NKB-induced Ca^2+ mobilization in HEK 293 cells
